Laboratory results from US7259276B2, “Polyenecarboxylic acid derivatives, processes for preparing them, and their use” (Sanofi-Aventis Deutschland GmbH, priority 2002, dated 2007).

Legend:
[1] = target: glycosyltransferase (PBP 1b) (Escherichia coli, UniProt P02919); assay: glycosyltransferase assay: displacement of 3H-moenomycin from the glycosyltransferase (PBP 1b)/3H-moenomycin complex; format: binding; conditions: displacement of 3H-moenomycin from PBP 1b; read-out: inhibitory constants (IC50 values) in the glycosyltransferase assay
Description: Table 1 summarizes, by way of example, the inhibitory concentrations (IC50) of some compounds of the invention. A special test system was used for finding glycosyltransferase inhibitors that are specific and very effective. This system uses a glycosyltransferase/^3H-moenomycin complex, which is brought into contact with substances that are to be tested. The determination of the GT-inhibitory effect is based on the displacement of radioactively labeled moenomycin A from the glycosyltransferase (PBP 1b)/^3H-moenomycin complex, it being possible to separate the released ^3H-moenomycin, as a soluble compound, from the fixed complex and to measure the remaining radioactivity using a Geiger counter.
The assay was carried out as described by Vollmer & Höltje (Antimicrobial Agents and Chemotherapy 2000, 44, 1181-1185), except that purified penicillin-binding protein 1b (PBP 1b; 5 pM), carrying ^3H-labeled moenomycin at the glycosyltransferase site, was used in the present example instead of [3H]benzylpenicillin. ^3H-Moenomycin was obtained from moenomycin A (Kurz et al., Eur. J. Biochem., 1998, 252, 500-507) by hydrogenating it with ^3H2:
6 mg of moenomycin, dissolved in 300 μL methanol, were added to a 1 cm^3 flask, after which 2 mg of palladium-charcoal (Degussa Type E10N/D) were added. The flask was then gassed, while excluding air, with 1 cm^3 3H2; and the reaction solution was left to hydrogenate for 15 minutes. After the reaction had come to an end, the catalyst was filtered off from the reaction mixture, which was diluted to 100 mL with ethanol. This solution can be used directly for preparing the glycosyltransferase/^3H-moenomycin complex. Total radioactivity of the reaction product: 6.56 GBq (177 mCi); specific activity: 1.9 TBq/mmol. The radioactive complex was attached to SPA PVT Copper His-Tag beads. The radioactive moenomycin that was displaced by the inhibitors was measured. • SPA PVT Copper His-Tag beads: Amersham RPN 0095; • PBS: GIBCO BRL 14200-067; • BSA: Calbiochem 12657; • NOG: SIGMA O-8001 (n-octyl β-D-glucopyranoside); • Tween 20: Acros 23336-067; • Microtiter plates: Greiner Labortechnik.
The determination was carried out in microtiter plates. 10 μL of the test solution were added to the microtiter plates, followed by 10 μL of ^3H-moenomycin (25 nM, 3.1 kBq/well) and 40 μL of SPA beads loaded with PBP 1b (100 μg of beads, 45 nM enzyme). The plates were sealed and left to stand at room temperature for 8 hours. After that, the beads were separated off from the test solution by centrifuging for 3 minutes at 1300 rpm. The distribution of the radioactivity was measured in a WALLAC MicroBeta® 1450 Counter.
The inhibitory values were calculated in accordance with the formula: [1−(cpmsample−cpmlow ctr)/(cpmhigh ctr−cpmlow ctr)]×100(%).

[2] = solubility (description of the substance); format: physicochemical; conditions: for solubility in organic solvents: medium-polar and polar organic solvents
[3] = stability (description of the substance); format: physicochemical; conditions: for stability in solution depending on pH: neutral, mildly acidic, strongly acidic, strongly alkaline media
Bacillus subtilis = conditions: against Bacillus subtilis; cited from earlier work
[4] = cited from earlier work

Sequence of glycosyltransferase (PBP 1b) (P02919 whole entry): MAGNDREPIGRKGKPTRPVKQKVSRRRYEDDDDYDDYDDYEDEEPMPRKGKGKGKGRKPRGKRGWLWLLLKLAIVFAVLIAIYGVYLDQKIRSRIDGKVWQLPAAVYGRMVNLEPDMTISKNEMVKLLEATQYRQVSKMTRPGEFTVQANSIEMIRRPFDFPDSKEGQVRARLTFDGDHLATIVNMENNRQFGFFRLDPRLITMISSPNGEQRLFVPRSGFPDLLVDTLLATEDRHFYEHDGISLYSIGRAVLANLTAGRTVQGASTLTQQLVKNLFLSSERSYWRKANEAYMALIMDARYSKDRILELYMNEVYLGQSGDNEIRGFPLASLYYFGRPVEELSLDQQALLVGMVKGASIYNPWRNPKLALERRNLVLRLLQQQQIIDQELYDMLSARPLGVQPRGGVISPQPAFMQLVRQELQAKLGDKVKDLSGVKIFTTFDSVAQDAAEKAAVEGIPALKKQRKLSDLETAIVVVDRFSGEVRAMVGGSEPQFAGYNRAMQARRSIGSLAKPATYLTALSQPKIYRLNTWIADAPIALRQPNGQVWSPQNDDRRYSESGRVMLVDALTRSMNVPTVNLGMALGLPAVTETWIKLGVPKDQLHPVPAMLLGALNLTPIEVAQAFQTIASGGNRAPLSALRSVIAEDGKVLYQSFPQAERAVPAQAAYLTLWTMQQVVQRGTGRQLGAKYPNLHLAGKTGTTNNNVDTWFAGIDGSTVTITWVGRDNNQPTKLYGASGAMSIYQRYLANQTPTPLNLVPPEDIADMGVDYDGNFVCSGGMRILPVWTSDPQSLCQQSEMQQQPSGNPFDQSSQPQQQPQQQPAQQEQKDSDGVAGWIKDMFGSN

Compound | IC50 [1] | solubility in organic solvents [2] | solubility in water [2] | sensitivity to light and air [3] | stability in solution depending on pH [3] | antibiotic effect (Bacillus subtilis) | absorption from the gastrointestinal tract [4]
O=C(O)/C=C/C=C\C=C\C=C/c1ccccc1/C=C/C=C/C(=O)O [serpentemycin A] | 0.2 µM | soluble in medium-polar and polar organic solvents | not particularly soluble in water | sensitive to light and air | stable in neutral and mildly acidic media but unstable in strongly acidic and strongly alkaline solution | – | –
O=C(O)/C=C/C=C/C=C\c1ccccc1/C=C/C=C/C(=O)O [serpentemycin B] | 0.1 µM | soluble in medium-polar and polar organic solvents | not particularly soluble in water | sensitive to light and air | stable in neutral and mildly acidic media, but unstable in strongly acidic and strongly alkaline solution | – | –
CC(O)C(O)/C=C/C=C/C=C/c1ccccc1/C=C/C=C/C(=O)O (stereo not drawn) [serpentemycin D] | 19 µM | soluble in medium-polar and polar organic solvents | not particularly soluble in water | sensitive to light and air | stable in neutral and mildly acidic media but unstable in strongly acidic and strongly alkaline solution | – | –
C/C=C/C=C\C=C\C=C/c1ccccc1/C=C/C=C/C(=O)O [serpentene, reference compound] | 18 µM | – | – | – | – | weak antibiotic effect | –
moenomycin | – | – | – | – | – | – | not absorbed from the gastrointestinal tract
